{"source": "patent US6613323B2", "about": "(priority 2000, dated 2003)", "tested_on": "Magnaporthe grisea", "assay_type": "cell-based"}
{"smiles": "OCCCCCCCCCCCCCCCCO", "note": "[1,16-hexadecanediol]", "values": [{"measurement": "effectiveness in inducing appressorium formation compared with cAMP", "setting": "in the presence of recombinant PepEST", "value": "much more effective than cAMP"}, {"measurement": "reversal of the inhibition of appressorium formation by the recombinant protein", "setting": "spores treated in the presence of recombinant PepEST, cAMP 10 mM, 1,16-hexadecanediol 0.01 mM", "value": "reversible"}]}
